Assay results as given in patent US8273787B2, “Activated cytotoxic compounds for attachment to targeting molecules for the treatment of mammalian disease conditions” (Onconova Therapeutics, Inc, priority 2006, dated 2012).

Columns and labels:
BT20 = experiment: growth inhibition, breast carcinoma cell line BT20; type: cell-based; details: Homo sapiens, BT-20; BT20, BREAST (ER−), HER2 ++
Method: (§1) Two compounds were selected from our library of cytotoxic molecules for immunoconjugation since they both have IC50 values in the low nanomolar range. Various tumor cell lines (ATCC) were treated for 96 hours in the presence of increasing concentrations of each compound and the total number of viable cells remaining was determined after 96 hours of exposure. The IC50 value was determined to be the amount of drug required to inhibit the growth of each cell line 50% as compared to vehicle treated cells.
(§2) Certain embodiments of immunoconjugates described herein are targeted to HER2 expressing breast cancer cells. Certain embodiments of immunoconjugates described herein are targeted to multiple myeloma (MM) cell lines expressing the surface antigens CD38 and or CD138. The IC50 value of ON 015100 and ON 013100 was determined for a number of breast cell lines as well as a panel of multiple myeloma cell lines expressing varying levels of each antigen and the data are shown in table (4) and table (5), respectively. […] Two cell lines, SK-BR-3 and BT474, known to express very high levels of HER2 are more than 2 fold more sensitive to ON 013100 as compared to the cell lines which express lower levels of HER2. Marx C., et al., Validated High-Throughput Screening of Drug-Like Small Molecules for Inhibitors of ErbB2 Transcription. Assay Drug Dev. […]

Daudi = experiment: 96 hour growth inhibition, Daudi; type: cell-based; details: Homo sapiens, Burkitt's Lymphoma (B-cell)
Method: as §1

[1] = system: Human breast carcinoma (BT20) cells; experiment: nude mouse xenograft model, BT20; type: in vivo; details: 10 mg/kg by IP injections, Q2Dx3
Method: Human breast carcinoma (BT20) cells were injected subcutaneously into female athymic nude mice (ncr/ncr). […] The average tumor volume and body weights were determined on the indicated days.
BT20 cells were injected in female nude mice. The mice (N=5-8) were treated with ON 01500 (Panel A.) at 10 mg/kg by IP injections or Vehicle alone (DMSO) every other day Q2Dx3.

T47D = experiment: growth inhibition, breast carcinoma cell line T47D; type: cell-based; details: Homo sapiens, BREAST (ER+), HER2 +
Method: as §1, §2

[2] = system: Various tumor cell lines (ATCC); experiment: 96 hour growth inhibition, various tumor cell lines; type: cell-based; details: 96 hours exposure, viable cells vs vehicle; read-out: IC50 value range
Method: as §1

RPMI 8266 = experiment: growth inhibition, multiple myeloma cell line RPMI 8266; type: cell-based; details: Homo sapiens, RPMI8266; RPMI 8266, multiple myeloma, CD38 + CD138 + CD20 −
Method: as §1
(§3) Pellat-Deceunynk, C., et al., Human Myeloma Cell Lines As A Tool For Studying The Biology Of Multiple Myeloma: A Reappraisal 18 Years After, Blood 86(10):4001-2 (1995); Gooding, R. P., et al., Phenotypic And Molecular Analysis Of Six Human Cell Lines Derived From Patients With Plasma Cell Dyscrasia, British Journal of Haematology 106:669-688 (1999).

OV-CAR-3 = experiment: 96 hour growth inhibition, OV-CAR-3; type: cell-based; details: Homo sapiens, OVCAR-3, OV-CAR-3, OVARIAN
Method: as §1

SK-BR-3 = experiment: growth inhibition, breast carcinoma cell line SK-BR-3; type: cell-based; details: Homo sapiens; SK-BR-3, BREAST (ER−), HER2 ++++
Method: as §1, §2

Raji = experiment: 96 hour growth inhibition, Raji; type: cell-based; details: Homo sapiens, Burkitt's Lymphoma (B-cell)
Method: as §1

H187 = experiment: 96 hour growth inhibition, H187; type: cell-based; details: Homo sapiens, NCI-H187, H187, SCLC
Method: as §1

U266 = experiment: growth inhibition, multiple myeloma cell line U266; type: cell-based; details: Homo sapiens, U-266, CD38 −/+ CD138 + CD20 −
Method: as §1, §3

Namalwa = experiment: 96 hour growth inhibition, Namalwa; type: cell-based; details: Burkitt's Lymphoma (B-cell)
Method: as §1

NCI-H929 = experiment: growth inhibition, multiple myeloma cell line NCI-H929; type: cell-based; details: Homo sapiens, CD38 + CD138 + CD20 −
Method: as §1, §3

DLD-1 = experiment: 96 hour growth inhibition, DLD-1; type: cell-based; details: Homo sapiens, DLD-1, COLO-RECTAL
Method: as §1

OPM-2 = experiment: growth inhibition, multiple myeloma cell line OPM-2; type: cell-based; details: Homo sapiens; OPM-2, multiple myeloma, CD38 + CD138 + CD20 −
Method: as §1, §3

DU145 = experiment: 96 hour growth inhibition, DU145; type: cell-based; details: Homo sapiens, DU-145, DU145, PROSTATE (AR−)
Method: as §1

[3] = system: prostate cancer cells (DU145); experiment: FACS cell cycle and apoptosis, DU145; type: cell-based; details: 20 nM, treated over 72 hours
Method: (§4) Treatment of cancer cells with either of these two compounds will result in a mitotic arrest followed by the onset of apoptosis in a dose dependent manner. FACS analysis of normal and tumor cells treated with ON 01500 and ON 013100. A. Cells treated for 24 hrs with ON 01500. B. Cells treated with ON 013100 (20 nM) and harvested at various time points thereafter. FIG. 6. […] ON 013100 treatment of normal human umbilical vein endothelial cells (HLVECs) results in a similar cell cycle distribution. FIG. 6.B illustrates cells that have been treated over 72 hours. […] This characteristic should greatly increase the “therapeutic window” of the resulting immunoconjugates since there are now two layers of selectivity. The first being the selective binding and release of the cytotoxic compound only in cells expressing the tumor specific antigen, and the innate selectivity of the compounds themselves. This will provide additional protection of the patient if non-selective binding or release occurs.

[4] = system: breast cell lines (SK-BR-3 and BT474 versus lines with lower HER2); experiment: sensitivity of breast cell lines by HER2 level; type: cell-based; details: very high HER2 lines versus lower HER2 lines
Method: Certain embodiments of immunoconjugates described herein are targeted to HER2 expressing breast cancer cells. Certain embodiments of immunoconjugates described herein are targeted to multiple myeloma (MM) cell lines expressing the surface antigens CD38 and or CD138. The IC50 value of […] and ON 013100 was determined for a number of breast cell lines as well as a panel of multiple myeloma cell lines expressing varying levels of each antigen and the data are shown in table (4) and table (5), respectively. […] Two cell lines, SK-BR-3 and BT474, known to express very high levels of HER2 are more than 2 fold more sensitive to ON 013100 as compared to the cell lines which express lower levels of HER2. Marx C., et al., Validated High-Throughput Screening of Drug-Like Small Molecules for Inhibitors of ErbB2 Transcription. Assay Drug Dev. Technology 4(3):273-84 (2006); Lostumbo, A., et al., Flow Cytometry: A New Approach For The Molecular Profiling Of Breast Cancer, Exp. and Molecular Pathology 80:46-53 (2006).

[5] = system: normal human umbilical vein endothelial cells; experiment: FACS cell cycle, HUVEC; type: cell-based; details: HUVECs, 20 nM, treated over 72 hours
Method: as §4

[6] = system: multiple myeloma cell lines; experiment: growth inhibition, multiple myeloma cell lines (panel statement); type: cell-based, Human; details: statement in words
Description: as §3

Row | SMILES | IC50 (BT20) [nM] | IC50 (Daudi) [nM] | weight loss or toxicity [1] | IC50 (T47D) [nM] | IC50 [2] [nM] | IC50 (RPMI 8266) [nM] | IC50 (OV-CAR-3) [nM] | IC50 (SK-BR-3) [nM] | IC50 (Raji) [nM] | IC50 (H187) [nM] | IC50 (U266) [nM] | IC50 (Namalwa) [nM] | IC50 (NCI-H929) [nM] | IC50 (DLD-1) [nM] | IC50 (OPM-2) [nM] | IC50 (DU145) [nM] | cell cycle distribution and apoptosis (FACS) [3] | fold more sensitive, SK-BR-3 and BT474 compared to cell lines which express lower levels of HER2 [4] | cell cycle distribution (FACS) [5] | IC50 values, multiple myeloma cell lines [6]
1 | COc1cc(OC)c(/C=C/S(=O)(=O)Cc2ccc(OC)c(N)c2)c(OC)c1 [ON 01500, (E)-2,4,6-trimethoxystyryl-4-methoxy-3-aminobenzylsulfone] | 4 | 3 | without any signs of weight loss or toxicity | 3 | 3 to 5 | 3 | 3 | 2 | 2 | 4 | 3 | 5 | 0.8 | 6 | 3 | 5 |  |  |  | 
2 | COc1cc(OC)c(/C=C/S(=O)(=O)Cc2ccc(OC)c(O)c2)c(OC)c1 [ON 013100, (E)-5-((2,4,6-trimethoxystyrylsulfonyl)methyl)-2-methoxyphenol] | 80 | 3 |  | 10 | 3 to 5 | 5 | 30 | 4 | 1 | 3 | 5 | 3 | 1 | 7 | 4 | 5 | G2/M arrest followed by apoptosis in a time dependent manner | more than 2 fold | arrest in the G1 stage of the cell cycle | nearing picomolar concentrations
